From patent US20230048901A1, “SOLID ORAL FORMULATION OF UTIDELONE” (Beijing Biostar Pharmaceuticals Co., Ltd., priority 2020, published 2023)

Assay: Solubility of Utidelone in water and organic solvents
Assay type: physicochemical
Method: The saturated solubility in water is less than 1 μg/ml, so it is difficult to develop into an oral formulation with suitable bioavailability. At present, the marketed epothilone antitumor drugs such as Utidelone injection and Ixabepilone injection etc., all of which use non-aqueous solvents such as ethanol and polyoxyl castor oil as solvents, are diluted with sodium chloride injection for administration by intravenous infusion. Since polyoxyl castor oil is a strong allergenic substance, antiallergic treatment must be given before intravenous administration, which reduces the compliance of this type of drug in clinical use, increases the adverse reactions of patients, and limits its clinical application.

**Q.** For `C/C1=C/CC(/C(C)=C/c2csc(C)n2)OC(=O)C[C@H](O)C(C)(C)C(=O)[C@H](C)[C@@H](O)[C@@H](C)CCC1` (stereo partly drawn) [Utidelone, 4,8-dihydroxy-5,5,7,9,13-pentamethyl-16-[1-methyl-2-(2-methyl-thiazole-4-yl)-vinyl]-hexadecoxetane-13-en-2,6-one lactone], which “solubility in organic solvents” value (ethanol, methanol, ethyl acetate, chloroform) is on record?
**A.** easily soluble

**Q.** And the “solubility in water” value (water)?
**A.** insoluble in water

**Q.** And the solubility (water, read-out: saturated solubility in water)?
**A.** < 1 µg/mL
